Literature values in patent US20090162488A1, “BEVERAGE PRODUCTS AND FLAVOR SYSTEMS HAVING A NON-SWEETENING AMOUNT OF MONATIN” (The Concentrate Manufacturing Company of Ireland, priority 2007, published 2009).
Peptide text beside a SMILES is read from it.

Settings: commonly accepted potency figures; weight basis versus sugar
For `COc1ccc(CCC(=O)c2c(O)cc(O[C@@H]3O[C@H](CO)[C@@H](O)[C@H](O)[C@H]3O[C@@H]3O[C@@H](C)[C@H](O)[C@@H](O)[C@H]3O)cc2O)cc1O` [Neohesperidin dihydrochalcone], the “potency figures: times as sweet as sugar” value is given as 300 times as sweet as sugar. For `C=C1C[C@@]23CC[C@H]4[C@@](C)(CCC[C@@]4(C)C(=O)O[C@@H]4O[C@H](CO)[C@@H](O)[C@H](O)[C@H]4O)[C@@H]2CC[C@]1(O[C@@H]1O[C@H](CO)[C@@H](O)[C@H](O)[C@H]1O[C@@H]1O[C@H](CO)[C@@H](O)[C@H](O)[C@H]1O)C3` [Stevioside], the “potency figures: times as sweet as sugar” value is given as 100-250 times as sweet as sugar. In the case of `C[C@H](CC[C@@H](O[C@@H]1O[C@H](CO[C@@H]2O[C@H](CO)[C@@H](O)[C@H](O)[C@H]2O)[C@@H](O)[C@H](O)[C@H]1O[C@@H]1O[C@H](CO)[C@@H](O)[C@H](O)[C@H]1O)C(C)(C)O)[C@H]1CC[C@@]2(C)[C@@H]3CC=C4[C@@H](CC[C@H](O[C@@H]5O[C@H](CO[C@@H]6O[C@H](CO)[C@@H](O)[C@H](O)[C@H]6O)[C@@H](O)[C@H](O)[C@H]5O)C4(C)C)[C@]3(C)[C@H](O)C[C@]12C` [Mogroside V], the “potency figures: times as sweet as sugar” value is given as 100-300 times as sweet as sugar. For `C=C1C[C@@]23CC[C@H]4[C@@](C)(CCC[C@@]4(C)C(=O)O[C@@H]4O[C@H](CO)[C@@H](O)[C@H](O)[C@H]4O)[C@@H]2CC[C@]1(O[C@@H]1O[C@H](CO)[C@@H](O)[C@H](O[C@@H]2O[C@H](CO)[C@@H](O)[C@H](O)[C@H]2O)[C@H]1O[C@@H]1O[C@H](CO)[C@@H](O)[C@H](O)[C@H]1O)C3` [Rebaudioside A], the “potency figures: times as sweet as sugar” value is given as 150-300 times as sweet as sugar. For `CC1=CC(=O)NS(=O)(=O)O1` [Acesulfame-K], the “potency figures: times as sweet as sugar” value is listed as 200 times as sweet as sugar. For `C[C@@H](NC(=O)[C@@H](N)CC(=O)O)C(=O)NC1C(C)(C)SC1(C)C` [Alitame], the “potency figures: times as sweet as sugar” value is given as 2,000 times as sweet as sugar. In the case of `OC[C@H]1O[C@H](O[C@]2(CCl)O[C@H](CCl)[C@@H](O)[C@@H]2O)[C@H](O)[C@@H](O)[C@H]1Cl` [Sucralose], the “potency figures: times as sweet as sugar” value is listed as 600 times as sweet as sugar. In the case of `O=C1NS(=O)(=O)c2ccccc21` [Saccharin], the “potency figures: times as sweet as sugar” value is listed as 300 times as sweet as sugar. For `COC(=O)[C@H](Cc1ccccc1)NC(=O)[C@H](CC(=O)O)NCCC(C)(C)C` [Neotame], the “potency figures: times as sweet as sugar” value is listed as 8,000 times as sweet as sugar. In the case of `COC(=O)[C@H](Cc1ccccc1)NC(=O)[C@@H](N)CC(=O)O` [Aspartame] (H-Asp-Phe-OMe), the “potency figures: times as sweet as sugar” value is listed as 200 times as sweet as sugar. For `CC1(C)[C@@H](O[C@H]2O[C@H](C(=O)O)[C@@H](O)[C@H](O)[C@H]2O[C@@H]2O[C@H](C(=O)O)[C@@H](O)[C@H](O)[C@H]2O)CC[C@]2(C)[C@H]3C(=O)C=C4[C@@H]5C[C@@](C)(C(=O)O)CC[C@]5(C)CC[C@@]4(C)[C@]3(C)CC[C@@H]12` [Glycyrrhizin], the “potency figures: times as sweet as sugar” value is listed as 30-50 times as sweet as sugar.

Same assay, conditions: versus sugar (i.e., sucrose)
In the case of `NC(CC(O)(Cc1c[nH]c2ccccc12)C(=O)O)C(=O)O` (stereo not drawn) [Monatin, 2-hydroxy-2-(indol-3-lymethyl)-4-aminoglutaric acid], the sweetness potency is listed as “about 2000 times as sweet as sugar”.
